Experimental data as given in paper PMC5936891, “A focused library synthesis and cytotoxicity of quinones derived from the natural product bolinaquinone” (Royal Society Open Science, 2018).

Tests used:
[1] = test system: HT29 (colon carcinoma); test: MTT in vitro growth inhibition assay, HT29; format: cell-based; details: Homo sapiens; for inhibition at 25 µM: HT-29, 25 µM of drug, 72 h, read-out: Percentage of Cell Growth Inhibition HT29; for GI50: HT-29, 72 h drug exposure
Description: (§1) With the desired bolinaquinone analogues 12–43 in hand, we examined their cytotoxicity against a panel of 11 tumour cell lines: HT29 (colon carcinoma), U87 and SJ-G2 (glioblastoma), MCF-7 (breast carcinoma), A2780 (ovarian carcinoma), H460 (lung carcinoma), A431 (skin carcinoma), Du145 (prostate carcinoma), BE2-C (neuroblastoma), MIA (pancreatic carcinoma), SMA (spontaneous murine astrocytoma) and a normal breast cell line (MCF10A). The inclusion of the MCF-10A cell line allowed a determination of a crude measure of relative toxicity while noting that the ultimate arbiter of toxicity requires in vivo evaluation. All analogues were initially screened at a 25 µM drug concentration.
(§2) Stock solutions were prepared as follows and stored at −20°C: drugs were stored as 40 mM solutions in DMSO. All cell lines were cultured in a humidified atmosphere 5% CO2 at 37°C. The cancer cell lines were maintained in Dulbecco's modified Eagle's medium (DMEM) (Trace Biosciences, Australia) supplemented with 10% fetal bovine serum, 10 mM sodium bicarbonate, penicillin (100 IU ml^−1), streptomycin (100 µg ml^−1) and glutamine (4 mM). The non-cancer MCF10A cell line was cultured in DMEM:F12 (1 : 1) cell culture media, 5% heat-inactivated horse serum, supplemented with penicillin (50 IU ml^−1), streptomycin (50 µg ml^−1), 20 mM Hepes, L-glutamine (2 mM), epidermal growth factor (20 ng ml^−1), hydrocortisone (500 ng ml^−1), cholera toxin (100 ng ml^−1) and insulin (10 ug ml^−1).
(§3) Cells in logarithmic growth were transferred to 96-well plates. Cytotoxicity was determined by plating cells in duplicate in 100 µl medium at a density of 2500–4000 cells per well. On day 0 (24 h after plating), when the cells were in logarithmic growth, 100 μl of medium with or without the test agent was added to each well. After 72 h, drug exposure growth inhibitory effects were evaluated using the MTT (3-[4,5-dimethylthiazol-2-yl]-2,5-diphenyl-tetrazolium bromide) assay and the absorbance read at 540 nm. Percentage growth inhibition was determined at a fixed drug concentration of 25 µM. A value of 100% is indicative of complete cell growth inhibition. Those analogues showing appreciable percentage growth inhibition underwent further dose–response analysis allowing for the calculation of a GI50 value. This value is the drug concentration at which cell growth is 50% inhibited based on the difference between the optical density values on day 0 and those at the end of drug exposure.

[2] = test system: U87 (glioblastoma); test: MTT in vitro growth inhibition assay, U87; format: cell-based; details: for inhibition at 25 µM: 25 µM of drug, 72 h, read-out: Percentage of Cell Growth Inhibition U87; for GI50: 72 h drug exposure
Description: as §1, §2, §3

[3] = test system: MCF-7 (breast carcinoma); test: MTT in vitro growth inhibition assay, MCF-7; format: cell-based; details: Homo sapiens; for inhibition at 25 µM: MCF7, 25 µM of drug, 72 h, read-out: Percentage of Cell Growth Inhibition MCF-7; for GI50: MCF7, 72 h drug exposure
Description: as §1, §2, §3

[4] = test system: A2780 (ovarian carcinoma); test: MTT in vitro growth inhibition assay, A2780; format: cell-based; details: Homo sapiens; for inhibition at 25 µM: 25 µM of drug, 72 h, read-out: Percentage of Cell Growth Inhibition A2780; for GI50: 72 h drug exposure
Description: as §1, §2, §3

[5] = test system: H460 (lung carcinoma); test: MTT in vitro growth inhibition assay, H460; format: cell-based; details: Homo sapiens; for inhibition at 25 µM: NCI-H460, 25 µM of drug, 72 h, read-out: Percentage of Cell Growth Inhibition H460; for GI50: NCI-H460, 72 h drug exposure
Description: as §1, §2, §3

[6] = test system: A431 (skin carcinoma); test: MTT in vitro growth inhibition assay, A431; format: cell-based; details: Homo sapiens; for inhibition at 25 µM: A-431, 25 µM of drug, 72 h, read-out: Percentage of Cell Growth Inhibition A431; for GI50: A-431, 72 h, 72 h drug exposure
Description: as §1, §2, §3

[7] = test system: Du145 (prostate carcinoma); test: MTT in vitro growth inhibition assay, Du145; format: cell-based; details: Homo sapiens; for inhibition at 25 µM: DU-145, 25 µM of drug, 72 h, read-out: Percentage of Cell Growth Inhibition Du145; for GI50: DU-145, 72 h, 72 h drug exposure
Description: as §1, §2, §3

[8] = test system: BE2-C (neuroblastoma); test: MTT in vitro growth inhibition assay, BE2-C; format: cell-based; details: Homo sapiens, BE(2)-C, 72 h; for inhibition at 25 µM: 25 µM of drug, read-out: Percentage of Cell Growth Inhibition BE2-C; for GI50: 72 h drug exposure
Description: as §1, §2, §3

[9] = test system: SJ-G2 (glioblastoma); test: MTT in vitro growth inhibition assay, SJ-G2; format: cell-based; details: for inhibition at 25 µM: 25 µM of drug, 72 h, read-out: Percentage of Cell Growth Inhibition SJ-G2; for GI50: 72 h drug exposure
Description: as §1, §2, §3

[10] = test system: MIA (pancreatic carcinoma); test: MTT in vitro growth inhibition assay, MIA; format: cell-based; details: for inhibition at 25 µM: 25 µM of drug, 72 h, read-out: Percentage of Cell Growth Inhibition MIA; for GI50: 72 h drug exposure
Description: as §1, §2, §3

[11] = test system: SMA (spontaneous murine astrocytoma); test: MTT in vitro growth inhibition assay, SMA; format: cell-based; details: Mus musculus; for inhibition at 25 µM: 25 µM of drug, 72 h, read-out: Percentage of Cell Growth Inhibition SMA; for GI50: 72 h drug exposure
Description: as §1, §2, §3

[12] = test system: MCF10A (normal breast cell line); test: MTT in vitro growth inhibition assay, MCF10A; format: cell-based; details: Homo sapiens, MCF-10A; for inhibition at 25 µM: 25 µM of drug, 72 h, read-out: Percentage of Cell Growth Inhibition MCF10A; for GI50: normal breast cell line, 72 h drug exposure
Description: as §1, §2, §3

[13] = test system: panel of 11 cancer cell lines and one normal cell line; test: Cytotoxicity across the whole cell line panel (MTT); format: cell-based; details: 25 µM single dose
Description: as §1, §2, §3

Structure (SMILES) | inhibition at 25 µM [1] | inhibition at 25 µM [2] | inhibition at 25 µM [3] | inhibition at 25 µM [4] | inhibition at 25 µM [5] | inhibition at 25 µM [6] | inhibition at 25 µM [7] | inhibition at 25 µM [8] | inhibition at 25 µM [9] | inhibition at 25 µM [10] | inhibition at 25 µM [11] | inhibition at 25 µM [12] | activity at the initial screening concentration (to proceed to GI50 determination) [13] | melting point | also measured
COC1=CC(=O)C(OC)=C(c2cccc(C)c2)C1=O [compound 14, 2,5-Dimethoxy-3-m-tolylcyclohexa-2,5-diene-1,4-dione] | 12 ± 3% | 21 ± 7% | 22 ± 11% | 59 ± 13% | 19 ± 2% | 26 ± 5% | 28 ± 8% | 80 ± 10% | 38 ± 18% | 24 ± 7% | 36 ± 7% | 16 ± 5% | not sufficiently active | 74 to 77 °C | –
CCCCc1ccc(C2=C(OC)C(=O)C=C(OC)C2=O)cc1 [compound 15, 3-(4-Butylphenyl)-2,5-dimethoxycyclohexa-2,5-diene-1,4-dione] | < 10% | 10 ± 7% | 19 ± 7% | 39 ± 14% | < 10% | < 10% | < 10% | 41 ± 18% | 12 ± 6% | < 10% | 25 ± 10% | < 10% | not sufficiently active | – | –
COC1=CC(=O)C(OC)=C(c2ccccc2OC)C1=O [compound 18, 3-(2-Methoxyphenyl)-2,5-dimethoxycyclohexa-2,5-diene-1,4-diene] | 13 ± 6% | 15 ± 2% | 22 ± 9% | 33 ± 6% | 22 ± 2% | 28 ± 4% | 14 ± 8% | 75 ± 9% | 17 ± 8% | 19 ± 5% | 34 ± 8% | 15 ± 5% | not sufficiently active | 162 to 164 °C | –
COC1=CC(=O)C(OC)=C(c2cc(OC)ccc2OC)C1=O [compound 21, 2,5-Dimethoxy-3-(2,5-dimethoxyphenyl)cyclohexa-2,5-diene-1,4-dione] | 16 ± 4% | 14 ± 2% | 13 ± 6% | 26 ± 9% | 17 ± 7% | 12 ± 3% | 17 ± 5% | 49 ± 11% | 16 ± 7% | 15 ± 2% | 26 ± 4% | < 10% | not sufficiently active | – | –
COC1=C(c2ccc3ccccc3c2)C(=O)C(OC)=C(c2ccccc2-c2ccccc2)C1=O [compound 36, 2,5-Dimethoxy-3-(biaryl-2-yl)-6-(naphthalene-3-yl)cyclohexa-2,5-diene-1,4-dione] | > 100% | 57 ± 2% | > 100% | 87 ± 2% | 65 ± 3% | 78 ± 2% | 51 ± 3% | > 100% | 78 ± 5% | 78 ± 2% | 84 ± 7% | 77 ± 4% | – | 113 to 115 °C | GI50 [1]: 11 ± 0.9 µM; GI50 [2]: 20 ± 0.9 µM; GI50 [3]: 5.1 ± 0.5 µM; GI50 [4]: 9 ± 0.6 µM; GI50 [5]: 18 ± 2.3 µM; GI50 [6]: 15 ± 1.5 µM; GI50 [7]: 21 ± 0.2 µM; GI50 [8]: 8.7 ± 0.7 µM; GI50 [9]: 13 ± 1.5 µM; GI50 [10]: 12 ± 0.7 µM; GI50 [11]: 10 ± 0.3 µM; GI50 [12]: 15 ± 2.2 µM
COC1=C(c2cccc(-c3ccccc3)c2)C(=O)C(OC)=C(c2ccc3ccccc3c2)C1=O [compound 37, 2,5-Dimethoxy-3-(biaryl-3-yl)-6-(naphthalene-3-yl)cyclohexa-2,5-diene-1,4-dione] | > 100% | 74 ± 3% | 88 ± 4% | 76 ± 3% | 95 ± 1% | > 100% | > 100% | > 100% | > 100% | 91 ± 2% | 85 ± 3% | > 100% | – | 119 to 121 °C | GI50 [1]: 5.4 ± 0.4 µM; GI50 [2]: 14 ± 1 µM; GI50 [3]: 10 ± 2.6 µM; GI50 [4]: 11 ± 0.9 µM; GI50 [5]: 11 ± 0.3 µM; GI50 [6]: 6 ± 0.9 µM; GI50 [7]: 9.8 ± 0.7 µM; GI50 [8]: 6.7 ± 0.3 µM; GI50 [9]: 9.3 ± 1.2 µM; GI50 [10]: 8.3 ± 1 µM; GI50 [11]: 13 ± 1 µM; GI50 [12]: 11 ± 1.3 µM
CCCNC1=CC(=O)C(NCCC)=C(c2ccc(C)cc2)C1=O [compound 38, 2,5-Bis(propylamino)3-p-tolylcyclohexa-2,5-diene-1,4-dione] | 59 ± 4% | 67 ± 5% | 57 ± 3% | 63 ± 4% | 51 ± 2% | 81 ± 0.3% | 56 ± 2% | 28 ± 12% | 50 ± 2% | 67 ± 3% | 73 ± 1% | 69 ± 3% | – | 166 to 168 °C | –
CCCNC1=CC(=O)C(NCCC)=C(c2cccc3ccccc23)C1=O [compound 39, 3-(Naphthalene-1-yl)-2,5-bis-(propylamino)cyclohexa-2,5-diene-1,4-dione] | 76 ± 2% | 75 ± 1% | 69 ± 1% | 78 ± 2% | 59 ± 3% | 76 ± 3% | 75 ± 1% | 73 ± 3% | 59 ± 1% | 69 ± 2% | 54 ± 11% | 78 ± 1% | – | 134 to 137 °C | –
CCCNC1=C(c2ccccc2)C(=O)C(NCCC)=C(c2cccc3ccccc23)C1=O [compound 42, 2-(Naphthalene-1-yl)-5-phenyl-3,6-bis-(propylamino)cyclohexa-2,5-diene-1,4-dione] | 71 ± 3% | 69 ± 4% | 77 ± 4% | 79 ± 1% | 63 ± 3% | 81 ± 1% | 70 ± 3% | 56 ± 4% | 52 ± 1% | 76 ± 2% | 56 ± 9% | 76 ± 1% | – | 226 to 228 °C | –
